Structures can show the parent of a compound that is named as a salt. Where two headings read alike, the source gives them in different places.

The target of one test is PDK1 (Homo sapiens (Human), UniProt O15530). As to the kind of experiment: PDK1 kinase assay (coupled PDK1/AKT/FAM-crosstide assay, IMAP fluorescence polarization). It counts as biochemical. The method, boiled down: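 Coupled cascade: 0.75 nM PDK1 (51-359) → 10 nM AKT2 (140-467-PIFtide) → 100 nM FAM-crosstide. ATP 40 μM, 25° C, 30 min. IMAP FP (ex 485/em 530), 2 h binding. ΔmP vs conc, 4-param fit.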
Background: In fluorescence polarisation assays a small probe gives low polarisation when free and higher when bound to something large.

The subject of test [1] is phospho-akt (Thr308) in PC-3 cells. As to the kind of experiment: Inhibition of phospho-akt (Thr308) in PC-3 cells, MSD phospho-akt 308 ELISA kit. It counts as cell-based. The note with it: 2 hours, no serum, read-out: EC50. The method, boiled down:
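Read-out is MSD electrochemiluminescence of Akt phosphorylated at Thr308 in lysates of PC-3 cells treated 2 h with compound in serum-free medium. Wortmannin at 5 μM defined the low control and DMSO the high control.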
Background: In an ELISA, binding on a coated surface is turned into a signal by an enzyme label.

The mark [2] stands for this setting: inhibition of phospo-PDK1 in vitro.
Where [3] appears, read: Homo sapiens, inhibition of P308 Akt in PC-3 cells, MSD.
The mark [4] stands for this setting: Homo sapiens, inhibition of P308 Akt in PC-3 cells using MSD.
[5] abbreviates: Homo sapiens, PC-3, 2 h, inhibition of P308 Akt in PC-3 cells, MSD.

PDK1, sequence (O15530 51-359): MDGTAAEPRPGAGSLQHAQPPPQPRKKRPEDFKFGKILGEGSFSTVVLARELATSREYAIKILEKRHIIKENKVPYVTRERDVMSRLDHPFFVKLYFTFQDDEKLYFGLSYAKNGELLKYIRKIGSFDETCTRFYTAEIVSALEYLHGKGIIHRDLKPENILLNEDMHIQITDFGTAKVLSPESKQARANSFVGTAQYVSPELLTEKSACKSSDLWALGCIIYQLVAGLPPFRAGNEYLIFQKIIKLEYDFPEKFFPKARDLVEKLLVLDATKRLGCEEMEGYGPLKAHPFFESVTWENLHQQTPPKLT

Molecule `Nc1ncnc2ccc(-c3ccc(CNc4ncc(NC(=O)C(F)(F)F)cc4C(=O)NCc4ccc(F)c(F)c4)s3)cc12` [Example 8.5.6, 2-({[5-(4-aminoquinazolin-6-yl)thiophen-2-yl]methyl}amino)-N-(3,4-difluorobenzyl)-5-[(trifluoroacetyl)amino] pyridine-3-carboxamide] displayed an IC50 on PDK1 (setting [2]) of 100 to 1000 nM. The EC50 in test [1] (setting [3]) lay within 1000 to 10000 nM.

In turn, `Nc1cnc(-c2ccc(CNc3ncc(C(F)(F)F)cc3C(=O)Nc3ccc(F)cc3)cc2)cn1` [Example 155, 2-(4-(5-aminopyrazin-2-yl)benzylamino)-N-(4-fluorophenyl)-5-(trifluoromethyl)nicotinamide] showed an IC50 at PDK1 (inhibition of PDK1 in vitro) of less than 100 nM. For the same molecule, the EC50 in test [1] (setting [4]) is less than 1000 nM.

`C[C@H](NC(=O)c1cc(C#N)cnc1NCc1ccc(-c2cnc(N)c(CCCCO)n2)cc1)c1ccc(F)cc1` [Example 90, 2-{4-[5-Amino-6-(4-hydroxy-butyl)-pyrazin-2-yl]-benzyl-amino}-5-cyano-N-[(S)-1-(4-fluoro-phenyl)-ethyl]-nicotinamide] gave an IC50 on PDK1 (inhibition of PDK1 in vitro) of less than 100 nM. Further, the EC50 in test [1] (setting [4]) is less than 1000 nM.

The molecule `Nc1cnc(-c2ccc(CNc3ncc(C(F)(F)F)cc3C(=O)NCc3ccc(F)c(F)c3)cc2)cn1` [Example 124, 2-(4-(5-aminopyrazin-2-yl)benzylamino)-N-(3,4-difluorobenzyl)-5-(trifluoromethyl) nicotinamide] came in with a half-inhibitory concentration (IC50) against PDK1 (inhibition of PDK1 in vitro) of less than 100 nM. Besides, in test [1] (setting [4]), the EC50 is less than 1000 nM.

`O=C(NCc1ccc(F)cc1)c1cccnc1NCc1ccc(-c2c[nH]c3ncccc23)s1` [Example 1.16, 2-(((5-(1H-pyrrolo[2,3-b]pyridin-3-yl)thiophen-2-yl)methyl)amino)-N-(4-fluorobenzyl)nicotinamide] showed a 50% inhibitory concentration (IC50) on PDK1 (setting [2]) of 100 to 1000 nM. Also, the EC50 in test [1] (setting [5]) is greater than 10000 nM.

For the molecule `Nc1ncnc2ccc(-c3ccc(CNc4nccnc4C(=O)NCc4ccc(F)cc4F)s3)cc12` [Example 3.75, 3-({[5-(4-aminoquinazolin-6-yl)thiophen-2-yl]methyl}amino)-N-(2,4-difluorobenzyl)pyrazine-2-carboxamide (TFA salt)], on PDK1 (setting [2]), the IC50 is less than 100 nM. For the same molecule, the EC50 in test [1] (setting [3]) was greater than 10000 nM.

Consider `C#Cc1cnc(NCc2ccc(-c3ccc4ncnc(N)c4c3)s2)c(C(=O)NCc2ccc(F)c(F)c2)c1` [Ex. 8.10, 2-(((5-(4-aminoquinazolin-6-yl)thiophen-2-yl)methyl)amino)-N-(3,4-difluorobenzyl)-5-ethynylnicotinamide], for which the half-maximal inhibitory concentration (IC50) on PDK1 (setting [2]) was less than 100 nM. Further, the EC50 in test [1] (setting [3]) is less than 1000 nM.

With `C[C@H](NC(=O)c1cc(C#N)cnc1NCc1ccc(-c2cnc(N)c(C(=O)NCCN(C)C)n2)cc1)c1ccc(F)cc1` [Example 212], at PDK1 (inhibition of PDK1 in vitro), the IC50 was less than 100 nM. For the same molecule, the 50% effective concentration (EC50) in test [1] (setting [4]) is less than 1000 nM.

For `O=C(NCc1ccc(F)c(F)c1)c1cccnc1NCc1cc(-c2c[nH]c3ncc(-c4ccn[nH]4)cc23)ccn1` [Example 54, 2-((4-(5-(1H-pyrazol-5-yl)-1H-pyrrolo[2,3-b]pyridin-3-yl)pyridin-2-yl)methylamino)-N-(3,4-difluorobenzyl)nicotinamide], on PDK1 (inhibition of PDK1 in vitro), the half-maximal inhibitory concentration (IC50) is less than 100 nM. Further, the 50% effective concentration (EC50) in test [1] (setting [4]) was less than 1000 nM.

Take `C[C@H](NC(=O)c1cc(C#N)cnc1NCc1ccc(-c2cnc3[nH]ncc3c2)cc1)c1ccc(F)cc1` [Example 2.36, 5-Cyano-N-[(S)-1-(4-fluoro-phenyl)-ethyl]-2-[4-(1H-pyrazolo[3,4-]pyridin-5-yl)-benzylamino]-nicotinamide]: the half-inhibitory concentration (IC50) against PDK1 (setting [2]) was less than 100 nM. For the same molecule, the EC50 in test [1] (inhibition of P308 Akt in PC-3 cells, MSD) is less than 1000 nM.

Consider `Cn1cnc2cnc3ccc(-c4ccc(CNc5ncc(C(F)(F)F)cc5C(=O)NCc5ccc(F)c(F)c5)s4)cc3c21` [Example 2.26, N-(3,4-difluorobenzyl)-2-(((5-(1-methyl-1H-imidazo[4,5-c]quinolin-8-yl)thiophen-2-yl)methyl)amino)-5-(trifluoromethyl)nicotinamide], for which the IC50 against PDK1 (setting [2]) was less than 100 nM. The EC50 in test [1] (setting [3]) was less than 1000 nM.

Molecule `C[C@H](NC(=O)c1cc(C#N)cnc1NCc1ccc(-c2cnc(N)c(N3CCC[C@@H](N)C3)n2)cc1)c1ccc(F)cc1` [Example 188, 2-{4-[5-Amino-6-((R)-3-amino-piperidin-1-yl)-pyrazin-2-yl]-benzylamino}-5-cyano-N-[(S)-1-(4-fluoro-phenyl)-ethyl]-nicotinamide] gave an IC50 on PDK1 (inhibition of PDK1 in vitro) of less than 100 nM. Further, the 50% effective concentration (EC50) in test [1] (setting [4]) fell in the range of 1000 to 10000 nM.

Molecule `Nc1ncnc2ccc(-c3ccc(CNc4ncc(NS(=O)(=O)Cc5ccccc5)cc4C(=O)NCc4ccc(F)c(F)c4)s3)cc12` [Example 8.6.6, 2-({[5-(4-aminoquinazolin-6-yl)thiophen-2-yl]methyl}amino)-5-[(benzylsulfonyl)amino]-N-(3,4-difluorobenzyl) pyridine-3-carboxamide] displayed an IC50 against PDK1 (setting [2]) of 1000 to 5000 nM. Moreover, the concentration for a half-maximal effect (EC50) in test [1] (setting [3]) is 1000 to 10000 nM.

At PDK1 (setting [2]), `O=C(NCc1ccc(F)c(F)c1)c1cccnc1NCCOc1ccc2[nH]c(=O)[nH]c2c1` [Example 16.2, N-(3,4-difluorobenzyl)-2-(2-(2-oxo-2,3-dihydro-1H-benzo[d]imidazol-5-yloxy)-ethylamino)nicotinamide] showed a 50% inhibitory concentration (IC50) of less than 100 nM. In test [1] (setting [3]), the half-maximal effective concentration (EC50) lay in the range of 1000 to 10000 nM.

Turning to `CN(C)/C=N/c1cnc(NCc2ccc(-c3ccc4ncnc(N)c4c3)s2)c(C(=O)NCc2ccc(F)c(F)c2)c1` [Example 8.6.5, 2-({[5-(4-aminoquinazolin-6-yl)thiophen-2-yl]methyl}amino)-N-(3,4-difluorobenzyl)-5-{[(E)-(dimethylamino)methylidene]amino}pyridine-3-carboxamide], the IC50 on PDK1 (setting [2]) lay within 100 to 1000 nM. In addition, the EC50 in test [1] (setting [5]) was 1000 to 10000 nM.

In turn, `O=C(NCc1ccc(F)c(F)c1)c1cccnc1NCc1cc(-c2c[nH]c3ncccc23)ccn1` [Example 18.1, 2-((4-(1H-pyrrolo[2,3-b]pyridin-3-yl)pyridin-2-ylmethyl)amino)-N-(3,4-difluorobenzyl)nicotinamide] returned a 50% inhibitory concentration (IC50) at PDK1 (setting [2]) of less than 100 nM. The 50% effective concentration (EC50) in test [1] (setting [3]) was 1000 to 10000 nM.

Consider `C[C@H](NC(=O)c1nc(C#N)cnc1NCc1ccc(-c2cnc3[nH]nc(N)c3c2)nc1)c1ccc(F)c(F)c1` [Example 58, (S)-3-(((6-(3-amino-1H-pyrazolo[3,4-b]pyridin-5-yl)pyridin-3-yl)methyl)amino)-6-cyano-N-(1-(3,4-difluorophenyl)ethyl) pyrazine-2-carboxamide], for which, at PDK1 (inhibition of PDK1 in vitro), the half-maximal inhibitory concentration (IC50) was less than 100 nM. In addition, the 50% effective concentration (EC50) in test [1] (setting [4]) was less than 1000 nM.

The molecule `Nc1ncc(-c2ccc(CNc3ncc(C(F)(F)F)cc3C(=O)Nc3ccc(F)cc3)cc2)nc1O[C@H]1CCC[C@@H]1N` [Example 170, 2-{4-[5-Amino-6-((1S,2S)-2-amino-cyclopentyloxy)-pyrazin-2-yl]-benzylamino}-N-(4-fluoro-phenyl)-5-trifluoromethyl-nicotinamide] registered an IC50 against PDK1 (inhibition of PDK1 in vitro) of less than 100 nM. Moreover, in test [1] (setting [4]), the half-maximal effective concentration (EC50) lay within 1000 to 10000 nM.

Regarding `Cc1ccc(F)cc1CNC(=O)c1cccnc1NCc1ccc(-c2ccc3ncnc(N)c3c2)s1` [Example 3.18, 2-({[5-(4-aminoquinazolin-6-yl)thiophen-2-yl]methyl}amino)-N-(5-fluoro-2-methylbenzyl) pyridine-3-carboxamide (TFA salt)], at PDK1 (setting [2]), the IC50 was 100 to 1000 nM. Moreover, the concentration giving a half-maximal response (EC50) in test [1] (setting [3]) was greater than 10000 nM.

The molecule `Nc1ncc(-c2ccc(CNc3ncc(C(F)(F)F)cc3C(=O)Nc3ccc(F)cc3)cc2)nc1O[C@@H]1CCNC1` [Example 159, 2-{4-[5-Amino-6-((R)-pyrrolidin-3-yloxy)-pyrazin-2-yl]-benzylamino}-N-(4-fluoro-phenyl)-5-trifluoromethyl-nicotinamide] had a 50% inhibitory concentration (IC50) at PDK1 (inhibition of PDK1 in vitro) of less than 100 nM. Further, the concentration giving a half-maximal response (EC50) in test [1] (setting [4]) was less than 1000 nM.

In the case of `O=C(NCc1ccc(F)c(F)c1)c1cccnc1NCCOc1ccc2c(c1)[nH]c1ncccc12` [Example 21, 2-(2-(9H-pyrido[2,3-b]indol-7-yloxy)ethylamino)-N-(3,4-difluorobenzyl)nicotinamide], the IC50 on PDK1 (setting [2]) is less than 100 nM. Besides, in test [1] (setting [3]), the EC50 was 1000 to 10000 nM.

In the case of `C[C@H](NC(=O)c1nccnc1NCc1ccc(-c2cnc3[nH]c(=O)[nH]c3c2)cc1)c1ccc(F)cc1` [Example 357, (S)-N-(1-(4-fluorophenyl)ethyl)-3-(4-(2-oxo-2,3-dihydro-1H-imidazo[4,5-b]pyridin-6-yl)benzylamino) pyrazine-2-carboxamide], at PDK1 (inhibition of PDK1 in vitro), the half-inhibitory concentration (IC50) is less than 100 nM. The EC50 in test [1] (setting [4]) was less than 1000 nM.

Consider `C[C@H](NC(=O)c1cc(C#N)cnc1NCc1ccc(-c2ccc(NCCN(C)C)nc2)cc1)c1ccc(F)cc1` [Example 224, 5-Cyano-2-{4-[6-(2-dimethylamino-ethylamino)-pyridin-3-yl]-benzylamino}-N-[(S)-1-(4-fluoro-phenyl)-ethyl]-nicotinamide], for which the IC50 on PDK1 (inhibition of PDK1 in vitro) is greater than 5000 nM. Moreover, in test [1] (setting [4]), the EC50 is greater than 10000 nM.

On PDK1 (inhibition of PDK1 in vitro), `Nc1n[nH]c2ncc(-c3ccc(CNc4ncc(C(F)(F)F)cc4C(=O)Nc4ccncn4)cc3)cc12` [Example 303, 2-(4-(3-amino-1H-pyrazolo [3,4-b]pyridin-5-yl)benzylamino)-N-(pyrimidin-4-yl)-5-(trifluoromethyl)nicotinamide] came in with a half-inhibitory concentration (IC50) of less than 100 nM. The 50% effective concentration (EC50) in test [1] (setting [4]) fell in the range of 1000 to 10000 nM.

At PDK1 (inhibition of PDK1 in vitro), `C[C@H](NC(=O)c1cc(C#N)cnc1Nc1ccc(-c2c[nH]c3ncnc(N)c23)cc1)c1ccc(F)cc1` [Example 436, (S)-2-(4-(4-amino-7H-pyrrolo[2,3-d]pyrimidin-5-yl)phenylamino)-5-cyano-N-(1-(4-fluorophenyl)ethyl)nicotinamide] displayed an IC50 of 100 to 1000 nM. Further, the EC50 in test [1] (setting [4]) is 1000 to 10000 nM.

In general, IC50 refers to the concentration that gives 50% inhibition. Read a high IC50 as weaker potency. What is called EC50 is the concentration that produces a half-maximal response.

For the origin of these results see patent publication US10030016B2 (Sunesis Pharmaceuticals, Inc., priority 2009, dated 2018).
